Patent US20220280507A1, “USES OF 5-METHYLTETRAHYDROFOLATE AND ITS COMPOSITION” (Lianyungang Jinkang Hexin Pharmaceutical Co., Ltd., priority 2019, published 2022)
Like-named read-outs stand apart in the source and are kept apart here.

Key:
[1] = tested on: alcoholic liver damage and fatty liver; assay: Alcoholic fatty liver model, serum TG, TC, SOD, MDA and liver histopathology; format: in vivo, SD rats; settings: for MDA / SOD: day 61, liquor model; for MDA / SOD / TC / TG: n=16; for Pathological examination of liver: liquor model; for TC / TG: serum day 61, liquor model
Protocol: 96 SPF-grade SD rats were chosen in half female and half male with an average weight of 176-220 g at the beginning of the experiment. According to their weight, they were randomly divided into vehicle control group (purified water, ig), model control group (liquor, 10 ml·Kg−1), positive control group (bicyclol, 50 mg·Kg−1, ig), folic acid calcium salt high-dose group (4 mg·Kg−1), folic acid calcium salt medium-dose group (2 mg·Kg−1), folic acid calcium salt low-dose group (1 mg·Kg−1), in half female and half male, and 16 rats in each group. Purified water was used as a negative control, and bicyclol (place of origin: Beijing Xiehe Pharmaceutical Factory, specification: 25 mg/tablet, batch number: H20040467) was used as a positive control drug. Route of administration: all were administered by oral gavage. Dosage of administration: 1 mg·Kg−1, 2 mg·Kg−1, and 4 mg·Kg−1. Frequency of administration: once a day for 60 consecutive days. Erguotou (batch number: 201603092, specification: 2L, place of origin: Beijing Shunxin Agriculture Co., Ltd.) model establishing method: gavage with diluted 56-degree Erguotou twice a day for 60 consecutive days.
Method of administration: administration started at prescribed doses on the day of modeling for 60 consecutive days and ended at the 60th day. At the same time, rats in each group were weighed every other week during administration period to monitor their body weight changes. On the 61st day, rats were dissected and serum was collected for determination of triglyceride (TG), total cholesterol (TC), malondialdehyde (MDA), superoxide dismutase (SOD) and liver histopathologic examination. The brain tissue of rats was taken out, and hippocampus tissue was separated on ice plate, prepared to homogenate with a mass fraction of 10% with purified water, then the homogenate was centrifuged to obtain supernatant. ELISA was used to detect the levels of inflammatory factors TNF-α and IL-1β in hippocampus tissue with continuous spectrum scanning microplate reader.

[2] = tested on: mice after drinking; settings: n=10
Protocol: (§1) Experiment 8 Tail Suspension Test and Swimming Test in Mice after Drinking
(§2) Clean-grade male Kunming mice, weighing 18-22 g, were chosen. The test was carried out at 23° C. with a humidity of 50%. The mice ate and drank freely, adapting to the environment for 5 days before the test. Then they were divided into 5 groups: model group, normal group, high-dose 5-MTHF-Ca group, medium-dose 5-MTHF-Ca group and low-dose 5-MTHF-Ca group (16 mg·Kg−1, 8mg·Kg−1, 4mg·Kg−1),
(§3) 10 mice in each group. The model group was given (by gavage) Erguotou (batch number: 201603092, specification: 2L, place of origin: Beijing Shunxin Agriculture Co., Ltd.) at 18 ml·Kg−1, and calcium folate (Lianyungang Jinkang Hexin Pharmaceutical Co., Ltd.). The high-dose, medium-dose and low-dose groups were also given the solution containing Erguotou and calcium folate. The mice were tested after 24 h. The tail suspension test is carried out by fixing the tail of a mouse so that it is suspended head down in a state of desperately struggling to escape but unable to escape. After a period of time, record the immobility time of the mouse in a desperate state in this environment to observe the therapeutic effect after administration. The head of the mouse suspended upside down was 10 cm from the bottom of the box, and two mice were suspended at a time, which were separated by a partition to avoid collision. The mice were suspended for 10 min, and the accumulated immobility time of the suspended mice was counted within the latter 5 min.

[3] = tested on: mice after drinking; settings: n=10; remark: listed apart in the source
Protocol: as §1, §2
as §3, with “min. The results are as follows:” for “min.”
The mice were placed in a plastic swimming box with a length of 50 cm, a width of 40 cm and a height of 40 cm. The time was counted for 10 min after the mice were placed in the water. The accumulated immobility time of the mice with only slight limb movements and no struggling, and remaining afloat was recorded within the latter 5 min.

[4] = tested on: TNF-α; assay: LPS-induced inflammatory response in astrocytes, TNF-α release (ELISA); format: cell-based, Kunming mice; settings: culture supernatant, LPS 1 μg·ml-1 + substance 10 μg·ml-1, 24 h, n=6
Text: Experiment 9 Inhibition of 5-Methyltetrahydrofolate and Curcumin on LPS-Induced Inflammatory Response in Astrocytes
The cerebral cortex of Kunming mice at 1˜2 d was taken out under aseptic conditions, washed 3 times with cold PBS after removing residual meninges and blood vessels, prepared into single cell suspension by blowing, centrifuged, the supernatant was discarded, and the precipitant was resuspended in AST basic medium (high-sugar DMEM containing 10% FBS). The suspension was inoculated into a culture flask coated with poly-L-lysine (0.1 mg/ml), and cultured in a CO2 incubator. After 24 h, tissue debris and non-adherent cells were removed by replacing the medium. Afterwards, the medium was replaced every 3 days until the cells reached 80% confluence, then the flask was placed on a constant temperature rotary shaker, where the suspension was centrifuged at 180 r/min, 37° C. for 18 h to remove oligodendrocytes and microglia from the upper layer. Then trypsin digestion was used for subculture. […]
LPS (1 μg·ml-1), LPS (1 μg·ml-1)+curcumin (10 μg·ml-1), LPS (1 μg·ml-1)+5-MTHF-Ca (10 μg·ml-1); experimental group: LPS (1 μg·ml-1)+curcumin (5 μg·ml-1)+5-MTHF-Ca (5 μg·ml-1). After 24 h, the culture supernatant was collected, and the cytokines IL-6, IL-1β and TNF-α were detected by ELISA.

[5] = high dose 16 mg·Kg−1 with Erguotou 18 ml·Kg−1, tested after 24 h
[6] = low dose 4 mg·Kg−1 with Erguotou 18 ml·Kg−1, tested after 24 h
[7] = medium dose 8 mg·Kg−1 with Erguotou 18 ml·Kg−1, tested after 24 h

In the case of 5-methyltetrahydrofolate calcium, the MDA ([1]; 1 mg·kg−1·d−1 ig 60 d) is reported as 45.20 ± 8.17 nmol/mgprot, the SOD ([1]; 1 mg·kg−1·d−1 ig 60 d) is reported as 253.20 ± 24.66 U/mgprot and the MDA ([1]; 2 mg·kg−1·d−1 ig 60 d) is reported as 42.17 ± 8.65 nmol/mgprot. For the same substance, the SOD ([1]; 2 mg·kg−1·d−1 ig 60 d) was 257.41 ± 31.28 U/mgprot, the MDA ([1]; 4 mg·kg−1·d−1 ig 60 d) was 47.96 ± 10.28 nmol/mgprot and the SOD ([1]; 4 mg·kg−1·d−1 ig 60 d) was 248.87 ± 34.64 U/mgprot. The “Pathological examination of liver” value ([1]; high-dose group 4 mg·Kg−1 ig 60 d) was “no hyperplasia of interstitial connective tissue and fatty degeneration of hepatocytes”, the “Pathological examination of liver” value ([1]; low-dose group 1 mg·Kg−1 ig 60 d) was “a few fatty vacuoles in hepatocytes, and no obvious hyperplasia of interstitial connective tissue” and the “Pathological examination of liver” value ([1]; medium-dose group 2 mg·Kg−1 ig 60 d) was “no hyperplasia of interstitial connective tissue and fatty degeneration of hepatocytes”. It also gave a TC ([1]; 1 mg·kg−1·d−1 ig 60 d) of 1.42 ± 0.36 mmol/L, a TG ([1]; 1 mg·kg−1·d−1 ig 60 d) of 1.08 ± 0.34 mmol/L and a TC ([1]; 2 mg·kg−1·d−1 ig 60 d) of 1.50 ± 0.37 mmol/L. It also gave a TG ([1]; 2 mg·kg−1·d−1 ig 60 d) of 1.03 ± 0.50 mmol/L, a TC ([1]; 4 mg·kg−1·d−1 ig 60 d) of 1.47 ± 0.44 mmol/L and a TG ([1]; 4 mg·kg−1·d−1 ig 60 d) of 1.04 ± 0.43 mmol/L. It also gave a Suspension immobility time [2, 5] of 63.53 ± 2.98 S, a Suspension immobility time [2, 6] of 72.42 ± 4.52 S and a Suspension immobility time [2, 7] of 68.32 ± 3.46 S. The Swimming immobility time [3, 5] was 104.64 ± 5.24 S, the Swimming immobility time [3, 6] was 123.56 ± 3.64 S and the Swimming immobility time [3, 7] was 110.42 ± 2.64 S. The TNF-α [4] was 489.21 ± 10.71 pg/mL.
